One assay has as its system Salmonella typhimurium. Briefly: Bacteriostatic activity against Salmonella Typhimurium PCM 2180 after 24 hrs by serial dilution microtiter plate method. The class given is functional, organism-based, Salmonella enterica subsp. enterica serovar Typhimurium. The note with it: Salmonella enterica.
A further assay deals with Candida albicans. Briefly: Antifungal activity against Candida albicans ATCC 10261 after 48 hrs by serial dilution microtiter plate method. The class given is functional, organism-based. The note with it: ATCC 10261, 48 h.
In another assay the test system is Micrococcus luteus. Briefly: Bacteriostatic activity against Micrococcus luteus after 24 hrs by serial dilution microtiter plate method. The class given is functional, organism-based.
For the next assay, the system named is HeLa. Briefly: Cytotoxicity against human HeLa S3 cells after 120 hrs by MTT assay. The class given is functional, cell-based.
The next assay relates to Proteus vulgaris. Description: Bacteriostatic activity against Proteus vulgaris ATCC 6380 after 24 hrs by serial dilution microtiter plate method. The class given is functional, organism-based. The note with it: ATCC 6380, 24 h.
Assay [1] has as its system Mycobacterium tuberculosis. Briefly: Tuberculostatic activity against Mycobacterium tuberculosis H37Rv. The class given is functional.
Another assay deals with Escherichia coli. Description: Bacteriostatic activity against Escherichia coli ATCC 11775 after 24 hrs by serial dilution microtiter plate method. The class given is functional, organism-based. To be noted: ATCC 11775, 24 h.
The subject of the next assay is Mycobacterium kansasii. Briefly: Tuberculostatic activity against Mycobacterium kansasii. The class given is functional.
For another assay, the system named is Staphylococcus aureus. Briefly: Bacteriostatic activity against Staphylococcus aureus ATCC 9144 after 24 hrs by serial dilution microtiter plate method. It counts as functional, organism-based. To be noted: ATCC 9144, 24 h.

Values after ≈ are worked out from the molar mass of the structure shown. A value given as a limit tells only on which side of the number the result lay.

`COc1ccc2oc(=O)sc2c1C(=O)/C=C/c1ccc(OCCN(C)C)cc1`: the IC50 (usually the concentration needed to halve the response being measured) amounted to 250 µg/mL (≈ 626 µM) in the assay with Salmonella typhimurium; 125 µg/mL (≈ 313 µM) in the assay on Candida albicans; 15.6 µg/mL (≈ 39.1 µM) in the assay with Micrococcus luteus; 8.3 µM with HeLa; 125 µg/mL (≈ 313 µM) in the assay on Proteus vulgaris; 125 µg/mL (≈ 313 µM) in the assay with Escherichia coli. Moreover, the IC50 in the assay with Staphylococcus aureus turned out to be 15.6 µg/mL (≈ 39.1 µM). The MIC (in assay [1]; against Mycobacterium kansasii) was 100 µg/mL (≈ 250 µM) in each case.

For the compound `COc1ccc2oc(=O)sc2c1C(=O)/C=C/c1ccc(Cl)cc1`, the IC50 was more than 1000 µg/mL in the assay with Salmonella typhimurium; 62.5 µg/mL (≈ 180 µM) with Candida albicans; 15.6 µg/mL (≈ 45 µM) in the assay on Micrococcus luteus; 5.2 µM in the assay with HeLa; more than 1000 µg/mL with Proteus vulgaris; more than 1000 µg/mL in the assay on Escherichia coli. Further, half-maximal inhibition in the assay on Staphylococcus aureus (IC50) was put at 7.8 µg/mL (≈ 22.5 µM). The MIC – broadly, the lowest concentration found to suppress growth – is 100 µg/mL (≈ 288 µM) in assay [1] and more than 100 µg/mL with Mycobacterium kansasii.

As for `COc1ccc2oc(=O)sc2c1C(=O)/C=C/c1ccc([N+](=O)[O-])cc1`, the IC50 with Salmonella typhimurium, in the assay on Candida albicans, in the assay with Micrococcus luteus, with Proteus vulgaris, with Escherichia coli and with Staphylococcus aureus was more than 1000 µg/mL each time. The MIC (in assay [1]; with Mycobacterium kansasii) was more than 100 µg/mL in each case.

For `COc1ccc2oc(=O)sc2c1C(=O)/C=C/c1ccc(N(C)C)cc1`, the IC50 in the assay on Salmonella typhimurium is more than 1000 µg/mL; in the assay on Candida albicans, more than 1000 µg/mL; in the assay with Micrococcus luteus it was more than 1000 µg/mL; in the assay with HeLa it was more than 100 µM; with Proteus vulgaris, more than 1000 µg/mL; in the assay on Escherichia coli, more than 1000 µg/mL. In addition, in the assay with Staphylococcus aureus, the half-maximal inhibitory concentration (IC50) is more than 1000 µg/mL. Moreover, the MIC (in assay [1]; in the assay with Mycobacterium kansasii) was more than 100 µg/mL in each case.

Turning to `COc1ccc(/C=C/C(=O)c2c(OC)ccc3oc(=O)sc23)cc1`, the IC50 with Salmonella typhimurium, in the assay with Candida albicans, in the assay on Micrococcus luteus, with Proteus vulgaris, in the assay with Escherichia coli and with Staphylococcus aureus was more than 1000 µg/mL throughout. In addition, the MIC (in assay [1]; against Mycobacterium kansasii) was more than 100 µg/mL in each case.

For `COc1ccc2oc(=O)sc2c1C(=O)/C=C/c1ccccc1`, the IC50 in the assay with Salmonella typhimurium was more than 1000 µg/mL; in the assay with Candida albicans, more than 1000 µg/mL; in the assay on Micrococcus luteus, more than 1000 µg/mL; in the assay with HeLa it was 8.4 µM; with Proteus vulgaris, more than 1000 µg/mL; in the assay with Escherichia coli it was more than 1000 µg/mL. In the assay with Staphylococcus aureus, this compound registered a half-inhibitory concentration (IC50) of more than 1000 µg/mL. In addition, the MIC (in [1]; against Mycobacterium kansasii) was more than 100 µg/mL in each case.

In the case of `COc1ccc2oc(=O)sc2c1C(=O)/C=C/c1ccc(Br)cc1`, the IC50 in the assay on Salmonella typhimurium, in the assay with Candida albicans, in the assay with Micrococcus luteus, in the assay with Proteus vulgaris, with Escherichia coli and in the assay with Staphylococcus aureus was more than 1000 µg/mL in each case. The MIC (in [1]; against Mycobacterium kansasii) was more than 100 µg/mL throughout.

In the case of `COc1ccc2oc(=O)sc2c1C(=O)/C=C/c1ccccc1Cl`, the IC50 in the assay on Salmonella typhimurium, in the assay on Candida albicans, in the assay on Micrococcus luteus, with Proteus vulgaris, in the assay with Escherichia coli and with Staphylococcus aureus was more than 1000 µg/mL each time. For the same compound, the MIC was 50 µg/mL (≈ 144 µM) in assay [1] and more than 100 µg/mL with Mycobacterium kansasii.

Turning to `COc1ccc2oc(=O)sc2c1C(=O)/C=C/c1cccc(Cl)c1`, the IC50 in the assay with Salmonella typhimurium, in the assay with Candida albicans, with Micrococcus luteus, with Proteus vulgaris, with Escherichia coli and with Staphylococcus aureus was more than 1000 µg/mL in each case. In addition, the MIC in [1] was 25 µg/mL (≈ 72.1 µM); with Mycobacterium kansasii, 100 µg/mL (≈ 288 µM).

In the case of `COc1ccc2oc(=O)sc2c1C(=O)/C=C/c1ccc(OCCN2CCOCC2)cc1`, the IC50 with Salmonella typhimurium worked out at 250 µg/mL (≈ 566 µM); in the assay with Candida albicans, 250 µg/mL (≈ 566 µM); in the assay on Micrococcus luteus, 31.2 µg/mL (≈ 70.7 µM); with Proteus vulgaris, 125 µg/mL (≈ 283 µM); in the assay on Escherichia coli it was 125 µg/mL (≈ 283 µM); in the assay on Staphylococcus aureus it was 31.2 µg/mL (≈ 70.7 µM). In addition, the MIC was 50 µg/mL (≈ 113 µM) in assay [1] and more than 100 µg/mL in the assay with Mycobacterium kansasii.

`COc1ccc(/C=C/C(=O)c2c(OC)ccc3oc(=O)sc23)cc1OC`: the IC50 is more than 1000 µg/mL in the assay with Salmonella typhimurium; more than 1000 µg/mL in the assay with Candida albicans; more than 1000 µg/mL in the assay with Micrococcus luteus; 14.1 µM in the assay with HeLa; more than 1000 µg/mL in the assay with Proteus vulgaris; more than 1000 µg/mL in the assay with Escherichia coli. For the same compound, the 50% inhibitory concentration (IC50) with Staphylococcus aureus was more than 1000 µg/mL. In addition, the minimal inhibitory concentration (MIC) (in [1]; against Mycobacterium kansasii) was more than 100 µg/mL throughout.
